Residues, ends and D or L forms follow the SMILES beside them. *: point of attachment. Succinimide(1-Et,3-yl) = CCN1C(=O)CC(*)C1=O
Molecular target: T1, human CRHR2 (Homo sapiens, UniProt Q13324)
T1 construct: expressed in transfected cells
T1 sequence (Q13324 1-411): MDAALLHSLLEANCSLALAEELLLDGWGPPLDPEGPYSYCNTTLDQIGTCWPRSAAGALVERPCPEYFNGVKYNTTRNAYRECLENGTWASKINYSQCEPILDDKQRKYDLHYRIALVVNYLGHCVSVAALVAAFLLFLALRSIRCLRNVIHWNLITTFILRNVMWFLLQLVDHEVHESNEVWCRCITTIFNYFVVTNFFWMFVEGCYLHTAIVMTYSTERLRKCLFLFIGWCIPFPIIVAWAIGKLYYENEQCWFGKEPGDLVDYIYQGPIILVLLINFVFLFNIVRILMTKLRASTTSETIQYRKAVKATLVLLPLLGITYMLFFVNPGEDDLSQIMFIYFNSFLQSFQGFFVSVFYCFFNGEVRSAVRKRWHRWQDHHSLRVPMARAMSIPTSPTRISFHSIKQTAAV
Test: cAMP assay in h-CRHR2 transfected SK-N-MC cells
Assay type: cell-based
Details: Table 13; h-SCP control pA50 minus test compound pA50 within same assay batch
Method: The concentration required for 50% maximum effect (A50) was 0.4 nM.
Human CRHR1 (accession number X72304) or CRHR2 (accession number U34587) were cloned into pcDNA3.1/Zeo expression vector and stably transfected into SK-N-MC cells by electroporation. Cells were maintained in MEM w/Earl's Salt with 10% FBS, 50 I.U. penicillin, 50 μg/ml streptomycin, 2 mM L-glutamine, 1 mM sodium pyruvate and 0.1 mM nonessential amino acids, 600 μg/ml G418. Cells were grown at 37° C. in 5% CO2.
Cells were plated in 96-well tissue culture dishes (Biocoat from BD Biosciences) overnight at 50,000 cell/well. Cells were washed with PBS then resuspended in DMEM F-12 without phenol red, containing 10 μM isobutylmethylxanthine (IBMX). Cells were incubated with the peptides at concentrations ranging from 1 pM to 10 μM for 60 min at 37° Celsius. […] Forskolin (10 μM), a direct stimulant of adenylate cyclase, was used as positive control. The assays were stopped by the addition of 0.5 M HCl and mixing by orbital rotation for 2 h at 4° Celsius.
To assess the activity of the inventive peptide at the CRHR2, an intracellular cAMP measurement test using a Flash plate radioactive assay (Catalog No. Cus56088; Perkin Elmer, MA, U.S.A.) was employed.
Transfected SK-N-MC cells were plated in 96-well Biocoat tissue culture dishes (BD Biosciences, San Jose, Calif., U.S.A) overnight at 50,000 cell/well. Cells were first washed with PBS and then suspended with DMEM/F-12 without phenol red, containing […]. Suspended cells were transferred into a 96-well flash plate coated with scintillant fluid. Cells were incubated with peptides ranging from […], for 60 min, at 37° Celsius. Forskolin at 10 μM was used as positive control. After ligand stimulation, cells were lysed by the addition of 0.5M HCl and mixed by orbital rotation for 2 h at 4° Celsius in order to release intracellular cAMP into the media.
Media containing released intracellular cAMP was transferred to a 96-well flash plate coated with scintillant fluid containing an anti-cAMP antibody. In this assay, intracellular cAMP competes with ^125I-labeled cAMP binding to the antibody. To generate a standard curve, cAMP ranging from 2.5 to 250 pmoles/ml was included in the experiment. [^125I]-cAMP was measured on a TopCount scintillation counter (Perkin Elmer, MA, U.S.A).
Individual agonist concentration-response curve data were fitted to the Hill equation, see formula below, using GraphPad Prism (Graphpad Software, La Jolla, Calif., U.S.A.), to provide estimates of agonist concentration needed to generate one-half maximal response (A50), and the maximal asymptote (α) and Hill slope (nH) parameters. In this equation, [A] is the agonist concentration and E is the measured effect:
For display purposes the mean fitted parameter estimates were used to generate a single E/[A] curve shown superimposed on the mean experimental data. Potency estimates for agonists, pA50, are expressed as the negative logarithm of the midpoint of each curve and listed with their standard error of measurement (SEM). Logarithm base 10 of the agonist dose ratio (Log DR) values were calculated by subtraction of the test compound pA50 value from the corresponding h-SCP (SEQ ID NO:1) control pA50 value within the same assay batch. The SEM values of the Log DR values are given by the square root of the sum of the squared SEM values of the h-SCP (SEQ ID NO:1) control and test compound pA50 values.
Human and rat peptides (see Table 10) were used on the stimulation of h-CRHR1 or h-CRHR2 transfected SK-N-MC cells in the cAMP flash plate assay. Peptides were incubated for 1 hr at 37° Celsius. Curves were calculated using non-linear regression sigmoidal concentration-response analysis calculation in GraphPad Prism. The so obtained pA50 values are shown in Table 11 in addition to literature values. […]

| Log DR | Structure (SMILES) |
| --- | --- |
| ~1.72 | CC[C@H](C)[C@H](NC(=O)[C@H](CC(N)=O)NC(=O)[C@H](Cc1ccccc1)NC(=O)[C@H](CC(C)C)NC(=O)[C@H](CC(C)C)NC(=O)[C@H](CC(N)=O)NC(=O)[C@H](CCSC)NC(=O)[C@@H](NC(=O)[C@H](CC(N)=O)NC(=O)[C@@H](NC(=O)[C@@H]1CCCN1C(=O)[C@@H](NC(=O)[C@H](CC(=O)O)NC(=O)[C@H](CC(C)C)NC(=O)[C@H](CO)NC(=O)[C@H](CC(C)C)NC(=O)[C@@H](NC(=O)[C@H](Cc1ccccc1)NC(=O)[C@H](CCCCN)NC(=O)[C@@H](N)[C@@H](C)O)[C@@H](C)O)C(C)C)[C@@H](C)O)[C@@H](C)CC)C(=O)N[C@@H](C)C(=O)N[C@@H](CCCCN)C(=O)N[C@@H](C)C(=O)N[C@@H](CCCCN)C(=O)N[C@@H](CC(N)=O)C(=O)N[C@@H](CC(C)C)C(=O)N[C@@H](CCCNC(=N)N)C(=O)N[C@@H](C)C(=O)N[C@@H](CCC(N)=O)C(=O)N[C@@H](C)C(=O)N[C@@H](C)C(=O)N[C@@H](C)C(=O)N[C@@H](CC(N)=O)C(=O)N[C@@H](C)C(=O)N[C@@H](Cc1c[nH]cn1)C(=O)N[C@@H](CC(C)C)C(=O)N[C@@H](CCSC)C(=O)N[C@@H](C)C(=O)N[C@@H](CCC(N)=O)C(=O)N[C@@H](CSC1CC(=O)N(CC)C1=O)C(N)=O (stereo partly shown) [SEQ ID NO: 42, TKFTLSLDVPTNIMNLLFNIAKAKNLRAQAAANAHLMAQC(-NES)-NH2] (H-TKFTLSLDVPTNIMNLLFNIAKAKNLRAQAAANAHLMAQC(Succinimide(1-Et,3-yl))-NH2; N-terminus assumed) |
| −0.32 | CC[C@H](C)[C@H](NC(=O)[C@H](CCC(N)=O)NC(=O)[C@H](C)NC(=O)[C@H](CCSC)NC(=O)[C@H](CC(C)C)NC(=O)[C@H](CSC1CC(=O)N(CC)C1=O)NC(=O)[C@H](C)NC(=O)[C@H](CC(N)=O)NC(=O)[C@H](C)NC(=O)[C@H](C)NC(=O)[C@H](C)NC(=O)[C@H](CCC(N)=O)NC(=O)[C@H](C)NC(=O)[C@H](CCCNC(=N)N)NC(=O)[C@H](CC(C)C)NC(=O)[C@H](CC(N)=O)NC(=O)[C@H](CCCCN)NC(=O)[C@H](C)NC(=O)[C@H](CCCCN)NC(=O)[C@H](C)NC(=O)[C@@H](NC(=O)[C@H](CC(N)=O)NC(=O)[C@H](Cc1ccccc1)NC(=O)[C@H](CC(C)C)NC(=O)[C@H](CC(C)C)NC(=O)[C@H](CC(N)=O)NC(=O)[C@H](CCSC)NC(=O)[C@@H](NC(=O)[C@H](CC(N)=O)NC(=O)[C@@H](NC(=O)[C@@H]1CCCN1C(=O)[C@@H](NC(=O)[C@H](CC(=O)O)NC(=O)[C@H](CC(C)C)NC(=O)[C@H](CO)NC(=O)[C@H](CC(C)C)NC(=O)[C@@H](NC(=O)[C@H](Cc1ccccc1)NC(=O)[C@H](CCCCN)NC(=O)[C@@H](N)[C@@H](C)O)[C@@H](C)O)C(C)C)[C@@H](C)O)[C@@H](C)CC)[C@@H](C)CC)C(N)=O (stereo partly shown) [SEQ ID NO: 43, TKFTLSLDVPTNIMNLLFNIAKAKNLRAQAAANAC(-NES) LMAQI-NH2] (H-TKFTLSLDVPTNIMNLLFNIAKAKNLRAQAAANAC(Succinimide(1-Et,3-yl))LMAQI-NH2; N-terminus assumed) |
| ~1.97 | CC[C@H](C)[C@H](NC(=O)[C@H](CCC(N)=O)NC(=O)[C@H](C)NC(=O)[C@H](CCSC)NC(=O)[C@H](CC(C)C)NC(=O)[C@H](Cc1c[nH]cn1)NC(=O)[C@H](C)NC(=O)[C@H](CSC1CC(=O)N(CC)C1=O)NC(=O)[C@H](C)NC(=O)[C@H](C)NC(=O)[C@H](C)NC(=O)[C@H](CCC(N)=O)NC(=O)[C@H](C)NC(=O)[C@H](CCCNC(=N)N)NC(=O)[C@H](CC(C)C)NC(=O)[C@H](CC(N)=O)NC(=O)[C@H](CCCCN)NC(=O)[C@H](C)NC(=O)[C@H](CCCCN)NC(=O)[C@H](C)NC(=O)[C@@H](NC(=O)[C@H](CC(N)=O)NC(=O)[C@H](Cc1ccccc1)NC(=O)[C@H](CC(C)C)NC(=O)[C@H](CC(C)C)NC(=O)[C@H](CC(N)=O)NC(=O)[C@H](CCSC)NC(=O)[C@@H](NC(=O)[C@H](CC(N)=O)NC(=O)[C@@H](NC(=O)[C@@H]1CCCN1C(=O)[C@@H](NC(=O)[C@H](CC(=O)O)NC(=O)[C@H](CC(C)C)NC(=O)[C@H](CO)NC(=O)[C@H](CC(C)C)NC(=O)[C@@H](NC(=O)[C@H](Cc1ccccc1)NC(=O)[C@H](CCCCN)NC(=O)[C@@H](N)[C@@H](C)O)[C@@H](C)O)C(C)C)[C@@H](C)O)[C@@H](C)CC)[C@@H](C)CC)C(N)=O (stereo partly shown) [SEQ ID NO: 44, TKFTLSLDVPTNIMNLLFNIAKAKNLRAQAAAC(-NES)AH LMAQI-NH2] (H-TKFTLSLDVPTNIMNLLFNIAKAKNLRAQAAAC(Succinimide(1-Et,3-yl))AHLMAQI-NH2; N-terminus assumed) |
| −0.01 | CC[C@H](C)[C@H](NC(=O)[C@H](CCC(N)=O)NC(=O)[C@H](C)NC(=O)[C@H](CCSC)NC(=O)[C@H](CC(C)C)NC(=O)[C@H](Cc1c[nH]cn1)NC(=O)[C@H](C)NC(=O)[C@H](CC(N)=O)NC(=O)[C@H](CSC1CC(=O)N(CC)C1=O)NC(=O)[C@H](C)NC(=O)[C@H](C)NC(=O)[C@H](CCC(N)=O)NC(=O)[C@H](C)NC(=O)[C@H](CCCNC(=N)N)NC(=O)[C@H](CC(C)C)NC(=O)[C@H](CC(N)=O)NC(=O)[C@H](CCCCN)NC(=O)[C@H](C)NC(=O)[C@H](CCCCN)NC(=O)[C@H](C)NC(=O)[C@@H](NC(=O)[C@H](CC(N)=O)NC(=O)[C@H](Cc1ccccc1)NC(=O)[C@H](CC(C)C)NC(=O)[C@H](CC(C)C)NC(=O)[C@H](CC(N)=O)NC(=O)[C@H](CCSC)NC(=O)[C@@H](NC(=O)[C@H](CC(N)=O)NC(=O)[C@@H](NC(=O)[C@@H]1CCCN1C(=O)[C@@H](NC(=O)[C@H](CC(=O)O)NC(=O)[C@H](CC(C)C)NC(=O)[C@H](CO)NC(=O)[C@H](CC(C)C)NC(=O)[C@@H](NC(=O)[C@H](Cc1ccccc1)NC(=O)[C@H](CCCCN)NC(=O)[C@@H](N)[C@@H](C)O)[C@@H](C)O)C(C)C)[C@@H](C)O)[C@@H](C)CC)[C@@H](C)CC)C(N)=O (stereo partly shown) [SEQ ID NO: 45, TKFTLSLDVPTNIMNLLFNIAKAKNLRAQAAC(-NES)NAH LMAQI-NH2] (H-TKFTLSLDVPTNIMNLLFNIAKAKNLRAQAAC(Succinimide(1-Et,3-yl))NAHLMAQI-NH2; N-terminus assumed) |

Reference: patent US10040838B2, “CRHR2 peptide agonists and uses thereof” (JANSSEN PHARMACEUTICA NV, priority 2008, dated 2018)
